{"source": "patent US12285034B2", "about": "“Human and non-human animal use of microbial anaplerotic oil” (HELIAE DEVELOPMENT, LLC, priority 2017, dated 2025)", "key": {"[1]": {"system": "Aurantiochytrium acetophilum HS399", "experimental": "The cultures are incubated in an orbital shaker at 180 rpm and 27° C.\nRespective Erlenmeyer flasks contain 100 mL of a medium supplemented with (g/L): dextrose (100), ammonium acetate (4.6), NaCl (12.5), MgSO4 7H2O (2.5), KH2PO4 (0.5), KCl (0.5) and CaCl2 (0.1). This medium also contains trace element solution (5 ml/L) and vitamin solution (1 ml/L). The trace element solution contains (g/L): EDTA di-sodium salt (6), FeCl3 6H2O (0.29), […] (6.84), MnCl2 4H2O (0.86), ZnCl2 (0.06), CoCl2 6H2O (0.026), NiSO4 6H2O (0.052), CuSO4 5H2O (0.002), Na2MoO4H2O (0.005). The vitamin solution contains (mg/L): thiamine (100), biotin (0.5) and cyanocobalamin (0.5). All culture materials can be autoclaved (e.g., 121° C., 15 min) and the media can be filter sterilized before use. […] Daily samples are collected to analyze the cell dry weight, residual glucose, culture pH (see FIG. 9), and lipid and fatty acid composition of the cultures. Cell dry weights (CDW) can be analyzed by filtration (e.g., 0.2 μm filter media) using a vacuum, and washed with a solution of ammonium bicarbonate. Residual glucose can be analyzed using colorimetric methods based on glucose […] activity. Biomass for lipid analysis is centrifuged and washed using purified water. The washed biomass is freeze dried. Total lipids are analyzed using Folch method (AOAC 996.06) and the FAMES re analyzed by gas chromatography using nonadecanoic (C19:0) acid as an internal standard."}, "[2]": {"system": "Aurantiochytrium acetophilum HS399", "test": "Growth on propionate as sole carbon source (Example 9)", "type": "cell-based", "details": "10 g/L, pH 7", "description": "FIG. 35 is a graphical representation of one implementation that illustrates results 3500 of growth of A. acetophilum HS399 with different carbon sources."}, "[3]": {"system": "Aurantiochytrium acetophilum HS399", "test": "Single vs two-stage fermentation with propionic acid (Example 12)", "type": "cell-based", "details": "propionic acid fed", "description": "Further, in this implementation, during the lipid phase, no additional nitrogen is fed, and the cell accumulated the lipids. In the single stage mode, half of the nitrogen (2.5 g/L NH3) can be batch fed, while the other half (2.5 g/L NH3) can be fed along with the glucose until the end of the fermentation. In this implementation, both treatments receive substantially the same nutrients; however, the single stage mode grows and accumulates lipids in a coordinated way throughout the fermentation. The single stage system can be characterized by an early lipid accumulation. […] Each of the four treatments can be cultured in duplicate (n=2) fermenters. […] As illustrated, propionic acid slows down the growth on both systems, but the two-stage system provides a better growth rate than the single stage system in the presence of propionate. […] This implementation illustrates that the traditional two stage approach to lipid accumulation may be preferable to produce OCFAs."}, "Y. lipolytica": {"system": "Y. lipolytica", "test": "Model of cytoplasmic propionate in Yarrowia lipolytica", "details": "2 g/L d propionic fed, pH 3", "description": "In this aspect, while the propionate and free proton form enters the microalgae cell through a monocarboxylic symport structure, propionic acid is membrane permeable and may be diffused directly into the microalgae cell. Therefore, in this aspect, the uptake of propionate can be controlled by the cell, and the uptake of propionic acid may not be controlled by the cell. As an example, the uncontrolled uptake of propionic acid presumably lowers the internal Aurantiochytrium cell pH; in turn, the cell attempts to maintain its pH homeostasis by pumping protons out of the cell. […] In one implementation, the change in pH may be calculated with the following equation derived from the Henderson and Hasselbalch equation: […]\nIn these implementations, the results illustrate that growth of the Y. lipolytica may not be affected by up to 2 g/L d propionic fed despite the low pH (3) present."}, "[4]": {"details": "116 h, propionate 3 + 3 + 3 g/L"}, "[5]": {"details": "propionate 3 + 3 + 3 g/L (166 h)"}}, "note": "Where two headings read alike, the source gives them in different places."}
{"smiles": "CCC(=O)O", "note": "[Propionate, propionic acid]", "values": [{"measurement": "OCFA", "setting": "[1]; 68 h, propionate 3 + 3 + 3 g/L", "result": "60.6 ± 0.4", "unit": "% TFA"}, {"measurement": "Total Fatty Acids", "setting": "[1]; 68 h, propionate 3 + 3 + 3 g/L", "result": "40.7 ± 1.7", "unit": "% DW"}, {"measurement": "OCFA", "setting": "[1]; 68 h, propionate 3 + 3 g/L", "result": "60.9 ± 0.6", "unit": "% TFA"}, {"measurement": "Total Fatty Acids", "setting": "[1]; 68 h, propionate 3 + 3 g/L", "result": "44.5 ± 4.5", "unit": "% DW"}, {"measurement": "OCFA", "setting": "[1]; 68 h, propionate 3 g/L", "result": "52.9 ± 7.3", "unit": "% TFA"}, {"measurement": "Total Fatty Acids", "setting": "[1]; 68 h, propionate 3 g/L", "result": "45.1 ± 3.0", "unit": "% DW"}, {"measurement": "growth (cell dry weight)", "setting": "[1]; 70 h, fed batching of 9 g/L propionate", "result": "~15", "unit": "g/L"}, {"measurement": "Total Fatty Acids", "setting": "[1]; 96 h, propionate 3 + 3 + 3 g/L", "result": "56.3 ± 1.2", "unit": "% DW"}, {"measurement": "Total Lipids", "setting": "[1]; 96 h, propionate 3 + 3 + 3 g/L", "result": "70.0 ± 1.0", "unit": "% DW"}, {"measurement": "OCFA", "setting": "[1]; 96 h, propionate 3 + 3 + 3 g/L (P9)", "result": "62.9 ± 0.2", "unit": "% TFA"}, {"measurement": "OCFA", "setting": "[1]; 96 h, propionate 3 + 3 + 3 g/L (P9), listed as propionate", "result": 62.4, "unit": "% TFA"}, {"measurement": "Total Fatty Acids", "setting": "[1]; 96 h, propionate 3 + 3 g/L", "result": "62.5 ± 0.3", "unit": "% DW"}, {"measurement": "Total Lipids", "setting": "[1]; 96 h, propionate 3 + 3 g/L", "result": "73.3 ± 1.5", "unit": "% DW"}, {"measurement": "OCFA", "setting": "[1]; 96 h, propionate 3 + 3 g/L (P6)", "result": "62.8 ± 0.2", "unit": "% TFA"}, {"measurement": "OCFA", "setting": "[1]; 96 h, propionate 3 + 3 g/L (P6), listed as propionate", "result": 62.4, "unit": "% TFA"}, {"measurement": "OCFA", "setting": "[1]; 96 h, propionate 3 g/L", "result": "24.0 ± 1.0", "unit": "% TFA"}, {"measurement": "Total Fatty Acids", "setting": "[1]; 96 h, propionate 3 g/L", "result": "66.8 ± 4.8", "unit": "% DW"}, {"measurement": "Total Lipids", "setting": "[1]; 96 h, propionate 3 g/L", "result": "81.0 ± 1.0", "unit": "% DW"}, {"measurement": "OCFA", "setting": "[1]; [4]", "result": "60.8 ± 0.2", "unit": "% TFA"}, {"measurement": "Total Fatty Acids", "setting": "[1]; [4]", "result": "63.1 ± 2.0", "unit": "% DW"}, {"measurement": "Total Lipids", "setting": "[1]; [4]", "result": "74.0 ± 1.0", "unit": "% DW"}, {"measurement": "OCFA", "setting": "[1]; 116 h, propionate 3 + 3 + 3 g/L, listed as propionic acid", "result": 60.4, "unit": "% TFA"}, {"measurement": "OCFA", "setting": "[1]; 116 h, propionate 3 + 3 g/L", "result": "57.5 ± 1.4", "unit": "% TFA"}, {"measurement": "Total Fatty Acids", "setting": "[1]; 116 h, propionate 3 + 3 g/L", "result": "70.8 ± 0.6", "unit": "% DW"}, {"measurement": "Total Lipids", "setting": "[1]; 116 h, propionate 3 + 3 g/L", "result": "77.7 ± 0.6", "unit": "% DW"}, {"measurement": "OCFA", "setting": "[1]; 116 h, propionate 3 g/L", "result": "22.8 ± 0.8", "unit": "% TFA"}, {"measurement": "Total Fatty Acids", "setting": "[1]; 116 h, propionate 3 g/L", "result": "71.7 ± 4.3", "unit": "% DW"}, {"measurement": "Total Lipids", "setting": "[1]; 116 h, propionate 3 g/L", "result": "74.8 ± 0.3", "unit": "% DW"}, {"measurement": "non-lethal but growth inhibitory concentration", "setting": "[1]; as low as, pH of 7", "result": 1, "unit": "g/L"}, {"measurement": "OCFA Productivity", "setting": "[1]; [5]", "result": "2.56 ± 0.04", "unit": "g/L/day"}, {"measurement": "Propionate deposition", "setting": "[1]; [5]", "result": "39.5 ± 1.7", "unit": "%"}, {"measurement": "OCFA Productivity", "setting": "[1]; propionate 3 + 3 g/L (116 h)", "result": "2.89 ± 0.06", "unit": "g/L/day"}, {"measurement": "Propionate deposition", "setting": "[1]; propionate 3 + 3 g/L (116 h)", "result": "65.0 ± 0.6", "unit": "%"}, {"measurement": "OCFA Productivity", "setting": "[1]; propionate 3 g/L (96 h)", "result": "1.53 ± 0.02", "unit": "g/L/day"}, {"measurement": "Propionate deposition", "setting": "[1]; propionate 3 g/L (96 h)", "result": "57.0 ± 0.9", "unit": "%"}, {"measurement": "OCFAs of total DW of algal product", "setting": "[1]; three doses of 3 g/L, 60.4% OCFAs of the 63.1% TFA", "result": 38.1, "unit": "%"}, {"measurement": "growth on propionate as sole carbon source", "setting": "[2]", "result": "did not support growth above that of the starved treatment"}, {"measurement": "Productivity", "setting": "[3]; single stage, 96 h", "result": 20.7, "unit": "g/L/day"}, {"measurement": "Biomass Yield", "setting": "[3]; single stage, batch time 96 h", "result": 82.5, "unit": "g/L"}, {"measurement": "Productivity", "setting": "[3]; two stage, 89 h", "result": 34.1, "unit": "g/L/day"}, {"measurement": "Biomass Yield", "setting": "[3]; two stage, batch time 89 h", "result": 125.8, "unit": "g/L"}, {"measurement": "accumulation of cytoplasmic propionate", "setting": "Y. lipolytica", "result": 328, "unit": "g/L"}]}
